Assays:
Assay in all cases: selective drug sensitivity score (sDSS, relative to normal bone marrow) (sDSS (score)); higher = more potent and effective on the cell line relative to normal bone marrow cells
Conditions in all cases: 72 h
[1] = test system: MN-60
[2] = test system: CCRF-HSB2
[3] = test system: COG-LL-332h
[4] = test system: 380
[5] = test system: RCH-ACV
[6] = test system: REH
[7] = test system: KOPN-8
[8] = test system: HPB-ALL
[9] = test system: COG-LL-402h
[10] = test system: JURKAT
[11] = test system: COG-LL-394h
[12] = test system: MOLT-14
[13] = test system: DND-41
[14] = test system: HAL-01
[15] = test system: P12-ICHIKAWA
[16] = test system: COG-LL-317
[17] = test system: KASUMI-9
[18] = test system: MHH-CALL-3
[19] = test system: MOLT-16
[20] = test system: ALL-PO
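Note: ALL cell lines in 384-well plates, five doses spanning 10,000-fold, each plate scaled between vehicle and 100 µmol/L benzalkonium chloride controls, sDSS an adapted area-under-curve metric.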

| SMILES | selective drug sensitivity score [1] | selective drug sensitivity score [2] | selective drug sensitivity score [3] | selective drug sensitivity score [4] | selective drug sensitivity score [5] | selective drug sensitivity score [6] | selective drug sensitivity score [7] | selective drug sensitivity score [8] | selective drug sensitivity score [9] | selective drug sensitivity score [10] | selective drug sensitivity score [11] | selective drug sensitivity score [12] | selective drug sensitivity score [13] | selective drug sensitivity score [14] | selective drug sensitivity score [15] | selective drug sensitivity score [16] | selective drug sensitivity score [17] | selective drug sensitivity score [18] | selective drug sensitivity score [19] | selective drug sensitivity score [20] |
| --- | --- | --- | --- | --- | --- | --- | --- | --- | --- | --- | --- | --- | --- | --- | --- | --- | --- | --- | --- | --- |
| Cc1c(C(=O)Nc2ccc(N3C[C@@H](C)O[C@@H](C)C3)nc2)cccc1-c1ccc(OC(F)(F)F)cc1 [Sonidegib] (top concentration 10000 nM) | -1.42 | -1.42 | -1.42 | -3.92 | 5.78 | 0.98 | 10.5 | 3.08 | -3.92 | 2.48 | -0.02 | 0.38 | 5.08 | -3.92 | 0.38 | -1.02 | 1.48 | -3.92 | 3.18 | 3.98 |
| COc1cc2c(Oc3ccc(NC(=O)C4(C(=O)Nc5ccc(F)cc5)CC4)cc3F)ccnc2cc1OCCCN1CCOCC1 [Foretinib] (top concentration 1000 nM) | -4.46 | 6.24 | 4.74 | -0.56 | 0.44 | 0.24 | 7.84 | 3.34 | 1.64 | -4.36 | 1.84 | 1.94 | -4.46 | 3.34 | 1.34 | 0.44 | -0.06 | -3.56 | 0.24 | 10.8 |
| CC1=NN(c2ccc(C(=O)O)cc2)C(=O)C1=Cc1ccc(-c2cc(C)c(C)cc2[N+](=O)[O-])o1 [C646] (top concentration 25000 nM) | -2.06 | 3.14 | 1.74 | -0.86 | 1.94 | 4.44 | 2.44 | 5.74 | -0.16 | 0.94 | -0.66 | 3.84 | 2.94 | -2.06 | -2.06 | 1.74 | 4.74 | 4.64 | 4.84 | 5.04 |
| Cc1cc(Nc2ncc(Cl)c(Nc3ccccc3S(=O)(=O)C(C)C)n2)c(OC(C)C)cc1C1CCNCC1 [Ceritinib] (top concentration 2500 nM) | -2.64 | -3.44 | -3.44 | 0.36 | -2.04 | -2.84 | -3.44 | 1.86 | 2.86 | -3.44 | 5.16 | -3.44 | -3.44 | -1.44 | -3.44 | -3.44 | -2.04 | -3.44 | -3.44 | -0.94 |
| Cc1cn(-c2cc(NC(=O)c3ccc(C)c(Nc4nccc(-c5cnccn5)n4)c3)cc(C(F)(F)F)c2)cn1 [Radotinib] (top concentration 10000 nM) | 0.4 | 8.2 | 19.6 | 1.8 | 9.4 | 0 | 10.3 | 6.4 | 0 | 0 | 1.8 | 0.6 | 13.8 | 0 | 0.7 | 0 | 9.2 | 0 | 0.4 | 3.7 |
| CCCCc1nc2cc(/C=C/C(=O)NO)ccc2n1CCN(CC)CC [Pracinostat] (top concentration 10000 nM) | -1.42 | 5.88 | 0.58 | 13.2 | 14.6 | 0.38 | 8.68 | 6.88 | 13 | 2.48 | 0.18 | 6.18 | 3.48 | 1.88 | 5.08 | 3.88 | 8.18 | 16.5 | 6.28 | 5.58 |
| Cn1cnc2c(F)c(Nc3ccc(Br)cc3F)c(C(=O)NOCCO)cc21 [Binimetinib] (top concentration 1000 nM) | -2.22 | -0.32 | -2.22 | 1.58 | -2.22 | 4.48 | 10.3 | -2.22 | 3.88 | -2.02 | 0.48 | 4.38 | -2.22 | 8.28 | -0.42 | -2.12 | -0.92 | 7.18 | -0.42 | 3.08 |
| O=C(CCCCCCC(=O)Nc1ccc([C@H]2O[C@@H](CSc3nc(-c4ccccc4)c(-c4ccccc4)o3)C[C@@H](c3ccc(CO)cc3)O2)cc1)NO [Tubacin] (top concentration 10000 nM) | 5.44 | 15.8 | 14 | 20.4 | 11.2 | 7.44 | 16.9 | 4.44 | 5.04 | 4.14 | 5.44 | 8.34 | 5.54 | 2.14 | 14.9 | 10.3 | 6.54 | 17.8 | 9.14 | 5.74 |
| Cn1nccc1Nc1nccc(-c2ccn([C@H](CO)c3ccc(Cl)c(F)c3)c(=O)c2)n1 [Ravoxertinib] (top concentration 10000 nM) | -3.2 | -1.2 | 4.1 | 4.9 | 4.5 | 1.2 | 13.6 | -0.4 | 3.4 | -0.8 | -0.2 | 0.1 | 4.5 | 1.9 | 2.1 | 4.8 | 5.3 | 9.7 | 4 | 3.6 |
| NC[C@@](O)(c1ccc(Cl)cc1)c1ccc(-c2cn[nH]c2)cc1 (top concentration 10000 nM) | 0.58 | 5.28 | 2.68 | 13.9 | 7.58 | 2.88 | 3.38 | -0.72 | 5.78 | 2.58 | -1.22 | -1.22 | -1.22 | 1.08 | 3.58 | 0.98 | 3.78 | 5.78 | 0.38 | 3.98 |
| CC1(COc2ccc3c(c2)ncn3-c2ccc3cccc(N4CCC(N)CC4)c3n2)COC1 [Crenolanib] (top concentration 10000 nM) | -3.42 | 4.98 | -0.82 | 2.08 | -1.12 | -4.32 | 0.68 | -3.12 | 0.68 | -1.12 | -3.62 | -1.22 | 0.98 | -1.82 | -2.62 | 2.08 | -0.02 | -5.32 | -0.22 | 7.78 |
| COCCNCc1ccc(-c2cc3nccc(Oc4ccc(NC(=S)NC(=O)Cc5ccc(F)cc5)cc4F)c3s2)nc1 [Glesatinib] (top concentration 2500 nM) | -1.96 | 11.7 | 4.54 | -1.96 | 3.74 | 4.44 | 6.14 | -0.26 | -1.76 | -1.96 | 0.84 | 0.54 | 0.44 | 2.44 | -1.66 | 0.64 | -0.36 | -0.36 | -1.96 | 9.04 |
| O=C(NC1CCNCC1)c1n[nH]cc1NC(=O)c1c(Cl)cccc1Cl [AT7519] (top concentration 10000 nM) | -11.4 | -3.46 | -5.06 | -4.86 | -3.16 | -2.16 | -5.06 | -10.8 | -3.66 | -10.7 | -1.06 | -3.86 | -5.66 | -14.6 | -8.66 | -4.06 | -3.66 | -4.56 | -3.06 | -14.4 |
| CNC(=O)c1cc(Oc2ccc(NC(=O)Nc3ccc(Cl)c(C(F)(F)F)c3)cc2)ccn1 [Sorafenib] (top concentration 1000 nM) | 0 | 0 | 0.1 | 0 | 1.4 | 0.2 | 2 | 0.1 | 0 | 0.4 | 0 | 0 | 0 | 2.9 | 0 | 0 | 0 | 0 | 0 | 5.5 |
| CC(C)c1cc(-c2n[nH]c(=O)n2-c2ccc3c(ccn3C)c2)c(O)cc1O [Ganetespib] (top concentration 1000 nM) | -5.06 | 4.34 | 6.64 | 2.74 | 3.44 | 0.54 | 10.1 | 0.64 | 4.54 | -2.46 | -3.26 | 1.74 | 2.94 | 0.74 | -0.96 | 8.64 | 0.14 | 6.64 | 4.74 | 3.84 |
| Cc1cc(C(C)Nc2ccccc2)c2nc(N3CCOCC3)cc(=O)n2c1 (stereo not given) [TGX-221] (top concentration 10000 nM) | -1.64 | 2.36 | -1.54 | -1.64 | 13.5 | -0.84 | -1.64 | -1.64 | 1.76 | -0.74 | -1.24 | -1.14 | -1.64 | 7.86 | -1.64 | -1.64 | 1.16 | -1.64 | -1.34 | 1.16 |
| CNc1nc(-c2ccc3c(N)n[nH]c3c2)cc(N2C[C@@H](C(=O)NC3CCCCC3)CC[C@H]2C)n1 (top concentration 10000 nM) | 2.96 | -0.14 | -0.14 | -0.14 | 18.6 | 3.86 | 7.26 | 1.86 | 6.36 | -0.14 | -0.14 | -0.14 | 1.96 | -0.14 | -0.14 | -0.14 | 6.36 | -0.14 | -0.14 | 8.86 |
| NCC(=O)Nc1ccc(-n2nc(C(F)(F)F)cc2-c2ccc3c(ccc4ccccc43)c2)cc1 (top concentration 25000 nM) | 18.9 | 16.4 | 14.3 | 9.6 | 17.3 | 12.5 | 7.4 | 7.6 | -0.2 | 15.3 | -0.2 | 11.2 | 7.5 | 5.5 | 16.7 | 11.3 | 8.1 | -0.2 | 19 | 7.7 |

Reference: the supplement of paper PMC8967900
